Reference: ChEMBL document CHEMBL1221327, “Allicin and derivates are cysteine protease inhibitors with antiparasitic activity” (Bioorg Med Chem Lett, 2010)
Active and inactive are the calls of the source. The rule behind the calls is not given here.

Experiments:
Cathepsin B [1] = molecular target: T1, Cathepsin B (Homo sapiens, UniProt P07858); test: Inhibition of cathepsin B
Procathepsin L [2] = molecular target: T2, Procathepsin L (Homo sapiens, UniProt P07711); test: Inhibition of cathepsin L
Target sequence in this assay (P07711 whole entry): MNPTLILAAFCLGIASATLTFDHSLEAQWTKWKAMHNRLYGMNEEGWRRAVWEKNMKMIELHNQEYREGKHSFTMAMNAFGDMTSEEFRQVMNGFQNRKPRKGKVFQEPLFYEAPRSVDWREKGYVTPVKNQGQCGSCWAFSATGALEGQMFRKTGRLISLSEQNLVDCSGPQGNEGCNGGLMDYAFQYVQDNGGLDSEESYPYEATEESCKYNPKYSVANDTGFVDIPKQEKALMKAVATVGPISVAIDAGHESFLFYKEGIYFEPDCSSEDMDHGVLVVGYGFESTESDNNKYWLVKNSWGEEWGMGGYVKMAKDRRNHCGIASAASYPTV

[3] = Inhibition of Plasmodium falciparum falcipain-2
Rhodesain = Rhodesain (Trypanosoma brucei rhodesiense, UniProt Q95PM0); test: Inhibition of Trypanosoma brucei rhodesiense rhodesain
Chain of Rhodesain (Q95PM0 whole entry): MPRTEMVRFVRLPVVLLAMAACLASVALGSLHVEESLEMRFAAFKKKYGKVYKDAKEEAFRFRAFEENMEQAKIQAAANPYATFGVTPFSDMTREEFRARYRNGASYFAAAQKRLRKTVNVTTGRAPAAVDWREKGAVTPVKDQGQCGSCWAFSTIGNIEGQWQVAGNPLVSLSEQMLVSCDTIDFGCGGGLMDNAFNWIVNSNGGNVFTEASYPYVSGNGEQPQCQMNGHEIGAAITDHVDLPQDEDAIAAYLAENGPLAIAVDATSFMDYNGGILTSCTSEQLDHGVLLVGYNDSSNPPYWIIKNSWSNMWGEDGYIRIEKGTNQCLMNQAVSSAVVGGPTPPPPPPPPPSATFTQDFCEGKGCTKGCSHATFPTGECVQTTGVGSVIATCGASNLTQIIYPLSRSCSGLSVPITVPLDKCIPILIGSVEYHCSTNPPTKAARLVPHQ

Plasmodium falciparum [4] = test: Antiparasitic activity against Plasmodium falciparum; type: functional, organism-based
Plasmodium falciparum [5] = test: Time dependent inhibition of Plasmodium falciparum falcipain-2 by Dixon plot analysis
[6] = molecular target: Rhodesain (Trypanosoma brucei rhodesiense) (UniProt Q95PM0); test: Time dependent inhibition of Trypanosoma brucei rhodesiense rhodesain by Dixon plot analysis
Chain of Rhodesain (Trypanosoma brucei rhodesiense) (Q95PM0 1-450): as the sequence (Q95PM0 whole entry) above

Cathepsin B [7] = molecular target: T1, Cathepsin B; test: Inhibition of cathepsin B at 100 uM
Procathepsin L [8] = molecular target: T2, Procathepsin L; test: Inhibition of cathepsin L at 100 uM
Target sequence in this assay (P07711 114-333 limits assumed): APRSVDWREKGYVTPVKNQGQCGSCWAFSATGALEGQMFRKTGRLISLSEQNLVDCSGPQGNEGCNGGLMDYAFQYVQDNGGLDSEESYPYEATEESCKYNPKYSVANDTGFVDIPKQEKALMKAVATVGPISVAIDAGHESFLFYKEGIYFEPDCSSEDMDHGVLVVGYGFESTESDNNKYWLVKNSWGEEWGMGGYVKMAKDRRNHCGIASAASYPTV

[9] = test system: Trypanosoma brucei brucei; test: Antiparasitic activity against Trypanosoma brucei brucei; type: functional, organism-based
Procathepsin L [10] = molecular target: T2, Procathepsin L; test: Time dependent inhibition of cathepsin L by Dixon plot analysis
Target sequence in this assay (P07711 114-333 limits assumed): as above

Procathepsin L [11] = molecular target: T2, Procathepsin L; test: Inhibition of cathepsin L at 20 uM
Target sequence in this assay (P07711 114-333 limits assumed): as above

Plasmodium falciparum [12] = test: Inhibition of Plasmodium falciparum falcipain-2 at 20 uM
[13] = molecular target: Rhodesain (Trypanosoma brucei rhodesiense) (UniProt Q95PM0); test: Inhibition of Trypanosoma brucei rhodesiense rhodesain at 20 uM
Cathepsin B [14] = molecular target: T1, Cathepsin B; conditions: 20 uM
Description: Inhibition of cathepsin B at 20 uM

Plasmodium falciparum [15] = test: Inhibition of Plasmodium falciparum falcipain-2 at 100 uM

Row | SMILES | Ki (Cathepsin B [1]) [µM] | Ki (Procathepsin L [2]) [µM] | Ki [3] [µM] | Ki (Rhodesain) [µM] | IC50 (Plasmodium falciparum [4]) [µM] | TDI (Plasmodium falciparum [5]) [min⁻¹ M⁻¹] | TDI [6] [min⁻¹ M⁻¹] | inhibition (Cathepsin B [7]) | inhibition (Procathepsin L [8]) | IC50 [9] [µM] | TDI (Procathepsin L [10]) [min⁻¹ M⁻¹] | inhibition (Procathepsin L [11]) | inhibition (Plasmodium falciparum [12]) | inhibition [13] | inhibition (Cathepsin B [14]) | inhibition (Plasmodium falciparum [15])
1 | [O-][S+](Cc1ccccc1)SCc1ccccc1 (stereo unspecified) | 7.8 | 31.7 | 4.5 | 2.31 | 30.3 | 48600 | 7800 | – | – | – | – | – | – | – | – | –
2 | CC(C)(C)S[S+]([O-])C(C)(C)C (stereo unspecified) | – | – | > 100 | > 100 | 72.5 | – | – | inactive | inactive | > 40 | – | – | – | – | – | –
3 | CCCS[S+]([O-])CCC (stereo unspecified) | 15.6 | 11.3 | 26.4 | 4.44 | 78.3 | 10800 | 7150 | – | – | > 40 | 6660 | – | – | – | – | –
4 | C=CCS[S+]([O-])CC=C (stereo unspecified) [ALLICIN] | 8.6 | 9.3 | 1.04 | 5.31 | 5.21 | – | – | – | – | 13.8 | – | inactive | inactive | inactive | inactive | –
5 | CC(C)(C)S[S+]([O-])Cc1ccccc1 (stereo unspecified) | – | > 100 | – | > 100 | 52.9 | – | – | inactive | – | 11.9 | – | – | – | – | – | inactive
6 | CC(C)CCS[S+]([O-])CCC(C)C (stereo unspecified) | 18.9 | 3.4 | 3.04 | 0.36 | 54.7 | – | – | – | – | – | – | – | – | – | – | –
7 | [O-][S+](SC1CCCCC1)C1CCCCC1 (stereo unspecified) | > 100 | > 100 | > 100 | > 100 | 34.4 | – | – | – | – | – | – | – | – | – | – | –
8 | CCCCCCS[S+]([O-])CCCCCC (stereo unspecified) | 5.94 | 10.4 | 1.8 | 1 | 10.9 | 44100 | 83500 | – | – | 3.08 | – | – | – | – | – | –
